Laboratory results as given in EP1200395B1, “UREA DERIVATIVES AS INHIBITORS OF CCR-3 RECEPTOR” (KIRIN BEER KABUSHIKI KAISHA, priority 1999, dated 2001).
Structures can show the parent of a compound that is named as a salt.

Target: T1, CCR-3 (Homo sapiens, UniProt P51677)
T1 sequence (P51677 1-355): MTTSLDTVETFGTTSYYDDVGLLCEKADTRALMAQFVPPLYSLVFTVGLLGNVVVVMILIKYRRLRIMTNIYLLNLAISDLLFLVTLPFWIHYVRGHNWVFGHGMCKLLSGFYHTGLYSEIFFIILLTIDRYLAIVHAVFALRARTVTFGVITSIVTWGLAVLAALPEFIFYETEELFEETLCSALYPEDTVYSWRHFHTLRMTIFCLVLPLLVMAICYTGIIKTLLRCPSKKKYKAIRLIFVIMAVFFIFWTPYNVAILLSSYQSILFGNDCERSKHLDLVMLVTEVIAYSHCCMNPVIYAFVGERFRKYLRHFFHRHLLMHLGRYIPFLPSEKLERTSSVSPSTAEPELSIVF
Assay: Eotaxin-induced chemotaxis of CCR-3 transfectant cells (CCR3/U937)
Type: cell-based
Set-up: expressed in transfected cells; host or cells: U937
Settings: 10 µM test compound; eotaxin 1 x 10^-9 M; CCR3/U937 cells (Table 3c)

Row | SMILES | Chemotaxis Assay 10 µM (inhibition %) [%]
1 | CC[N+](CCCNC(=O)Nc1ccccc1)(CCc1ccc(Cl)cc1)Cc1ccc(C(=O)OC)cc1.[I-] (stereo not drawn) [Compound 303] | 100
2 | CC[N+](CC)(CCCNC(=O)Nc1ccccc1)CCc1ccc(OC)cc1.[I-] [Compound 304] | 66
3 | CC[N+](CC)(CCCNC(=O)Nc1ccccc1)Cc1ccccc1.[I-] [Compound 305] | 100
4 | CC[N+](CC)(CCCNC(=O)Nc1ccccc1)CCc1ccc(F)cc1.[I-] [Compound 306] | 100
5 | CC[N+](CC)(CCCNC(=O)Nc1ccccc1)CCc1ccc(C)cc1.[I-] [Compound 307] | 92
6 | CC[N+](CC)(CCCNC(=O)Nc1ccccc1)CCc1ccccc1Cl.[I-] [Compound 308] | 100
7 | CC[N+](CC)(CCCCCNC(=O)Nc1ccccc1)CCc1ccc(Cl)cc1.[I-] [Compound 323, [5-(Phenylureido)pentyl][2-(4-chlorophenyl)ethyl]diethylammanium iodide] | 100
8 | CC[N+](CC)(CCCNC(=O)Nc1ccccc1)C1CCc2ccccc21.[I-] (stereo not drawn) [compound 311] | 93
9 | CC[N+](CCCNC(=O)Nc1ccc(Br)cc1)(CCCC(=O)OC)C(C)c1ccccc1.[I-] (stereo not drawn) [compound 312] | 97
10 | CC[N+](CCCNC(=O)Nc1ccc(Br)cc1)(CCCC(=O)OC)C(C)c1ccccc1.[I-] (stereo not drawn) [compound 313] | 86
11 | CC[N+](CCCNC(=O)Nc1ccc(Br)cc1)(CCCC(=O)OC)C1CCc2ccccc21.[I-] (stereo not drawn) [compound 314] | 100
12 | CC[N+](CCCNC(=O)Nc1ccccc1)(CCc1ccc(Cl)cc1)CCc1ccc(Cl)cc1.[I-] [compound 317] | 100
13 | CC[N+](CCCNC(=O)Nc1ccccc1)(CCc1ccc(Cl)cc1)CC(C)C.[I-] (stereo not drawn) [compound 318] | 100
14 | CC[N+](CCCNC(=O)Nc1ccccc1)(CCc1ccc(Cl)cc1)CC1CCCCC1.[I-] (stereo not drawn) [compound 319] | 100
15 | CCOC(=O)CCCCC[N+](CC)(CCCNC(=O)Nc1ccccc1)CCc1ccc(Cl)cc1.[I-] (stereo not drawn) [compound 321] | 100
16 | CC[N+](CCCNC(=O)Nc1ccc(OC)cc1)(CCc1ccc(Cl)cc1)Cc1ccccc1.[I-] (stereo not drawn) [compound 324] | 100
17 | CC[N+](CCCNC(=O)Nc1ccc(Cl)c(Cl)c1)(CCc1ccc(Cl)cc1)Cc1ccccc1.[I-] (stereo not drawn) [compound 325] | 100
18 | CC[N+](CCCNC(=O)Nc1ccc(C#N)cc1)(CCc1ccc(Cl)cc1)Cc1ccccc1.[I-] (stereo not drawn) [compound 326] | 100
19 | CC[N+](CCCNC(=O)Nc1ccccc1)(CCc1ccc(Cl)cc1Cl)Cc1ccccc1.[I-] (stereo not drawn) [compound 327] | 100
20 | CC[N+](CCCNC(=O)Nc1ccccc1)(CCc1cccc(Cl)c1)Cc1ccccc1.[I-] (stereo not drawn) [compound 328] | 100
21 | CC[N+](CCCNC(=O)Nc1ccccc1)(CCc1ccc(Cl)cc1)Cc1cccc(Cl)c1.[I-] (stereo not drawn) [compound 329] | 100

Row | SMILES | Chemotaxis Assay 10 µM (inhibition %) [%]
22 | CC[N+](CCCNC(=O)Nc1ccccc1)(CCc1ccc(Cl)cc1)Cc1ccc(-c2ccccc2)cc1.[I-] (stereo not drawn) [compound 330] | 100
23 | CC[N+](CCCNC(=O)Nc1ccccc1)(CCc1ccc(Cl)cc1)Cc1cccc(OC)c1.[I-] (stereo not drawn) [compound 331] | 100
24 | CC[N+](CCCNC(=O)Nc1ccccc1)(CCc1ccc(Cl)cc1)Cc1cccc(C(=O)OC)c1.[I-] (stereo not drawn) [compound 332] | 100
25 | CC[N+](CCCNC(=O)Nc1ccccc1)(CCc1ccc(Cl)cc1)Cc1cccc(Oc2ccccc2)c1.[I-] (stereo not drawn) [compound 333] | 100
26 | CC[N+](CCCNC(=O)Nc1ccccc1)(CCc1ccc(Cl)cc1)Cc1ccc(OCc2ccccc2)cc1.[I-] (stereo not drawn) [compound 334] | 100
27 | CC[N+](CCCNC(=O)Nc1ccccc1)(CCc1ccc(Cl)cc1)Cc1ccc([N+](=O)[O-])cc1.[I-] (stereo not drawn) [compound 337] | 99
28 | CC[N+](CCCNC(=O)Nc1ccccc1)(CCc1ccc(Cl)cc1)Cc1cccc([N+](=O)[O-])c1.[I-] (stereo not drawn) [compound 338] | 100
29 | CC[N+](CCCNC(=O)Nc1ccccc1)(CCc1ccc(Cl)cc1)Cc1ccc(F)cc1F.[I-] (stereo not drawn) [compound 339] | 100
30 | CC[N+](CCCNC(=O)Nc1ccccc1)(CCc1ccc(Cl)cc1)Cc1ccc(Br)cc1.[I-] (stereo not drawn) [compound 340] | 100
31 | CC[N+](CCCNC(=O)Nc1ccccc1)(CCc1ccc(Cl)cc1)Cc1ccccc1-c1ccccc1.[I-] (stereo not drawn) [compound 341] | 100
32 | CC[N+](CCCNC(=O)Nc1ccccc1)(CCc1ccc(Cl)cc1)Cc1ccc(C(C)(C)C)cc1.[I-] (stereo not drawn) [compound 342] | 97
33 | CC[N+](CCCNC(=O)Nc1ccccc1)(CCc1ccc(Cl)cc1)Cc1ccc(OC)cc1.[I-] (stereo not drawn) [compound 344] | 100
34 | CC[N+](CCCNC(=O)Nc1ccccc1)(CCc1ccc(Cl)cc1)Cc1ccc(C#N)cc1.[I-] (stereo not drawn) [compound 345] | 100
35 | CC[N+](CCCNC(=O)Nc1ccccc1)(CCc1ccc(Cl)cc1)Cc1ccccc1C.[I-] (stereo not drawn) [compound 346] | 100
36 | CC[N+](CCCNC(=O)Nc1ccccc1)(CCc1ccc(Cl)cc1)Cc1cccc(C)c1.[I-] (stereo not drawn) [compound 347] | 100
37 | CC[N+](CCCNC(=O)Nc1ccccc1)(CCc1ccc(Cl)cc1)Cc1cc2c(cc1Cl)OCO2.[I-] (stereo not drawn) [compound 348] | 100
38 | CC[N+](CCCNC(=O)Nc1ccccc1)(CCc1ccc(Cl)cc1)Cc1ccc(Cl)c(Cl)c1.[I-] (stereo not drawn) [compound 349] | 100
39 | CC[N+](CCCNC(=O)Nc1ccccc1)(CCc1ccc(Cl)cc1)Cc1ccc(OCc2ccccc2)c(OCc2ccccc2)c1.[I-] (stereo not drawn) [compound 350] | 59
40 | CC[N+](CCCNC(=O)Nc1ccccc1)(CCc1ccc(Cl)cc1)Cc1ccc(C)c(C)c1.[I-] (stereo not drawn) [compound 353] | 100
41 | CC[N+](CCCNC(=O)Nc1ccccc1)(CCc1ccc(Cl)cc1)Cc1cccc(Oc2ccccc2F)c1.[I-] (stereo not drawn) [compound 354] | 100

Same assay, conditions: U-937; 10 µM test compound; eotaxin 1 x 10^-9 M; CCR3/U937 cells (Table 3c)

Row | SMILES | inhibition at 10 µM [%]
42 | CC[N+](CCCNC(=O)Nc1ccccc1)(CCc1ccc(Cl)cc1)Cc1ccccc1 (stereo not drawn) [Compound 302, [3-(Phenylureido)propyl][2-(4-chlorophenyl)ethyl](benzyl)ethylammonium iodide] | 100
43 | CC[N+](CC)(CCCNC(=O)Nc1ccccc1)CCc1cccc(Cl)c1 [Compound 309, [3-(Phenylureido)propyl][2-(3-chlorophenyl)ethyl]diethylammonium iodide] | 100
44 | CC[N+](CCCNC(=O)Nc1ccc(Br)cc1)(CCCC(=O)O)[C@@H](C)c1ccccc1 (stereo partly drawn) [Compound 315, [3-(4-Bromophenylureido)propyl][(1S)-1-phenylethyl][3-(carboxy)propyl]ethylammonium trifluoroacetate] | 63
45 | CC[N+](CCCNC(=O)Nc1ccc(Br)cc1)(CCCC(=O)O)[C@H](C)c1ccccc1 (stereo partly drawn) [Compound 316, [3-(4-Bromophenylureido)propyl][(1R)-1-phenylethyl][3-(carboxy)propyl]ethylammonium trifluoroacetate] | 82
46 | CC[N+](CCCCC(=O)OC)(CCCNC(=O)Nc1ccccc1)CCc1ccc(Cl)cc1 (stereo not drawn) [Compound 320, [3-(Phenylureido)propyl][2-(4-chlorophenyl)ethyl][4-(methoxycarbonyl)butyl] ethylammonium iodide] | 100
47 | CC[N+](CCCNC(=O)Nc1ccccc1)(CCc1ccc(Cl)cc1)Cc1ccc(C(=O)O)cc1 (stereo not drawn) [Compound 322, [3-(Phenylureido)propyl][2-(4-chlorophenyl)ethyl][4-(carboxy)benzyl]ethylammonium iodide] | 93
48 | CC[N+](CCCNC(=O)Nc1ccccc1)(CCc1ccc(Cl)cc1)Cc1ccccc1Cl (stereo not drawn) [Compound 343, [3-(Phenylureido)propyl][2-(4-chlorophenyl)ethyl](2-chlorobenzyl)ethylammonium iodide] | 100
49 | CC[N+](CCCNC(=O)Nc1ccccc1)(CCc1ccc(Cl)cc1)Cc1cc(F)ccc1F (stereo not drawn) [Compound 351, [3-(Phenylureido)propyl][2-(4-chlorophenyl)ethyl](2,5-difluorobenzyl)ethylammonium iodide] | 100
50 | CC[N+](CCCNC(=O)Nc1ccccc1)(CCc1ccc(Cl)cc1)Cc1cccc(F)c1 (stereo not drawn) [Compound 352, [3-(Phenylureido)propyl][2-(4-chlorophenyl)ethyl](3-fluorobenzyl)ethylammonium iodide] | 100

Same assay, conditions: test compound 0.1 µg/ml; eotaxin 1 x 10^-9 M; CCR3/U937 transfectants; 37 °C, 1 hour

Row | SMILES | Chemotaxis Assay 0.1 µg/ml (inhibition %) [%]
51 | CC[N+](CCCNC(=O)Nc1ccc(Cl)c(Cl)c1)(CCOCCOC)CCc1ccccc1.[I-] (stereo not drawn) [compound 359] | 49
52 | CC[N+](CCCNC(=O)Nc1ccc(Cl)c(Cl)c1)(CCOCCOC)CCc1cccc(F)c1.[I-] (stereo not drawn) [compound 360] | 70
53 | C=C(C)C[N+](CC)(CCCNC(=O)Nc1ccc(Cl)c(Cl)c1)CCc1ccccc1.[I-] (stereo not drawn) [compound 368] | 88
54 | CC[N+](CCF)(CCCNC(=O)Nc1ccc(Cl)c(Cl)c1)CCc1cccc(Cl)c1.[I-] (stereo not drawn) [compound 369] | 82
